Source: patent US10464957B2, “Oxidized lipids and methods of use thereof” (Vascular Biogenics Ltd., priority 2014, dated 2019)

Legend:
[1] = test system: RANTES-induced signaling in human monocytes (primary CD14+); assay: RANTES-induced signaling, western blot; format: cell-based; details: RANTES 100 ng/ml for 15 minutes
Description: Cells (10^6/ml) were pretreated for 20 min with VB-201 (1-hexadecyl-2-(4′-carboxy)butyl-glycero-3-phosphocholine or 1-hexadecyl-2-(4′-carboxybutyl)-glycerol-3-phosphocholine) or VB-701 at the doses indicated in FIG. 2, or with solvent (Sol), followed by 15 min activation with 100 ng/ml lipopolysaccharide (LPS) or were untreated (Unt). Cells were washed and resuspended in lysis buffer containing 1:100 dithiothreitol (DTT), phosphatase and protease inhibitors (Thermo Scientific). Samples were loaded onto a precast Criterion TGX gel (Bio-Rad, Hemel Hempstead, UK) and transferred onto nitrocellulose membrane. Blots were blocked with 5% milk or BSA in Tris buffered saline and Tween 20 (TBST) for 1 h, followed by incubation with primary and secondary antibodies. Membranes were developed using an ECL kit (Thermo Scientific). The following antibodies were used for immunoblotting:
Human monocytes were obtained, treated and analyzed by western blot as described in Example 9 and FIG. 7, except that cells were induced with RANTES (100 ng/ml; Cat. No. 300-06, PeproTech, Israel) for 15 minutes. […] Accordingly, VB-702 and VB-201 inhibit RANTES-induced signaling in human monocytes (primary CD14+).

[2] = test system: LPS (TLR4)-stimulated human monocytes (primary CD14+); assay: IL-12/23p40 ELISA, LPS (TLR4)-stimulated monocytes; format: cell-based; details: 1 hour pretreatment, 24 hour 100 ng/ml LPS, ELISA of supernatant
Description: Human monocytes were obtained as described in Example 9 and FIG. 9A-9B. Human monocytes were seeded (10^6/ml) and pretreated for 1 hour with VB-201, VB-701 or VB-702, followed by 24 hour activation with 100 ng/ml LPS from Escherichia coli strain 055:B5 (Sigma, Israel) (FIG. 9A) or 300 ng/ml Pam3CSK4 (InvivoGen, San Diego, Calif., USA) (FIG. 9B) to induce cytokine production. IL-12/23p40 concentration in the supernatant was then measured by ELISA (R&D systems, Cat. No. DY1240). Cells activated with solvent (0.5% ethanol in PBS) were used as a control.

[3] = test system: NASH-induced mice; assay: NASH and liver fibrosis mouse model (STZ + HFD), liver histology; format: in vivo
Description: Neonatal male mice exposed to low-dose streptozotocin (STZ) develop liver steatosis with diabetes. Continuous high fat diet (HFD) increases lobular inflammation with foam cell-like macrophages, showing nonalcoholic steatohepatitis (NASH) pathology. NASH was induced in 40 male mice by a single subcutaneous injection of 200 μg per mouse of STZ two days after birth and feeding HFD [57 kcal % fat]) from four weeks of age. Vehicle, VB-703 (4 mg/kg), or telmisartan (10 mg/kg) as positive control, were administered once daily for three weeks, starting from six weeks of age. Mice were sacrificed at nine weeks of age.
Liver pathology was used to determine the effect of VB-703 on liver inflammation and fibrosis. Histology slides were stained with hematoxylin/eosin (H&E) to assess inflammation. The inflammation score was determined as follows:
Histology slides were stained with Sirius red to determine collagen content as a marker for the extent of fibrosis.

[4] = test system: nephrectomized rats; assay: 5/6 nephrectomy chronic renal disease rat model (focal and segmental glomerulosclerosis); format: in vivo, Sprague Dawley (SD) Rats
Description: Male Sprague Dawley (SD) Rats (Harlan Laboratories, Israel) with an initial weight of 200 g were housed 2-3 per cage in IVC cages in dedicated HVAC (heat, ventilation, air conditioning animal facility at a temperature of 22±2° C. and RH (relative humidity) of 55±15%). Temperature and humidity were monitored continuously. The facility had no exposure to outside light and was maintained on automatic alternating cycles of 12 hours of light and 12 hours of dark. Animals were provided with a commercial rodent diet (Harlan Teklad TRM Rat/Mouse Diet) ad libitum and allowed free access to autoclaved water, supplied to each cage via polysulphone bottles with stainless steel sipper tubes. All animal work was approved by the Animal Care and Use Committee of Israel (IL-13-03-027).
Rats were divided into three groups: (1) Healthy rats (n=3) in group A, (2) Sham group—subjected to chirurgical process but without kidney mass reduction (n=3) in group B, and (3) the rest were induced with chronic renal failure (n=32). Chronic renal failure was induced by a two stage (5/6) nephrectomy (Nx), with subtraction firstly of about ⅔ of the left kidney by left flank incision and, one week later, complete removal of the right kidney. General anesthesia consisted of intraperitoneal injection of ketamine 100 mg/kg and xylazine 20 mg/kg (0.85 ml ketamine+0.15 ml xylazine for each ml preparation; 1 μl/g BW was injected I.P).
One week following the second surgery, rats were randomly assigned to the following experimental groups:
Nephrectomized, orally administered with VB-703 4 mg/kg (n=8); and
Nephrectomized, orally administered with telmisartan 10 mg/kg as positive control (n=8).
Body weight (BW) was monitored throughout the study and rats were treated by oral gavage according to their body weight for 7 weeks. Rats were sacrificed by CO2 inhalation 8 weeks from removal of the right kidney (2nd surgery).
Proteinuria and albuminuria was determined in urine specimens, collected during a 24-hour period, from animals housed in cages at 4 weeks (3 w of treatment) and 8 weeks (7 w of treatment) after the subtotal nephrectomy (2nd surgery). Urine samples were analyzed for: glucose, urea, sodium, potassium, creatinine, total protein, and albumin.
Upon sacrifice, at 8 weeks, kidneys were collected, weighed and fixed in 4% formaldehyde.
For light microscopy, paraffin-embedded tissue slides of 4 μm were stained with Periodic Acid-Schiff (PAS) reagent, Masson's Trichrome and Hematoxylin & Eosin.
Glomerular sclerosis index. Glomerulosclerosis was assessed by PAS-stained sections using a semiquantitative scoring system. The extent of glomerulosclerosis was evaluated by examining mostly 100 randomly selected glomeruli at a magnification of ×400 and applying a score system according to the percentage of sclerosed glomerular area. The score was graded from 0 to 4: (0=0% area; 1=1-25%; 2=26-50%, 3=51-75%, 4=76% and above). The mean of all scored glomeruli was presented. Moreover, the extent of global and segmental glomerulosclerosis was evaluated in the same glomeruli, where <80% sclerosis was referred to as segmental and >80% was referred to as global.
Glomerular area. The glomerular area of mostly 100 randomly selected glomeruli at a magnification of ×100 was quantitated by counting squares covered by glomeruli area using a grid and the mean glomeruli area was calculated.
Renal tissues were fixed in 4% formaldehyde and embedded in paraffin. The paraffin-embedded tissues were then cut to form tissue slides of 4 μm. Immunohistochemistry of the paraffin-embedded tissue slides was analyzed using antibodies in the following concentration: monoclonal mouse anti rat CD-68 (ED-1, Serotec MCA341) 1:25. For quantitation of interstitial CD68+ staining, the number of positive cells was counted in 20 randomly selected non-overlapping fields per animal, and the mean value was presented. […]

[5] = Nx rats, VB-703 4 mg/kg, Telmisartan 10 mg/kg, 8 weeks, Mean ± S.E
[6] = VB-703 4 mg/kg, telmisartan 10 mg/kg, oral 7 weeks, vs Nx PBS 0.5% Eth

SMILES	formation of p-ERK induced by RANTES [1]	IL-12p40 levels, LPS (TLR4)-stimulated [2]	steatosis ([3]; VB-703 4 mg/kg once daily for three weeks)	decrease of liver fibrosis compared to vehicle treated mice (Sirius red) ([3]; VB-703 4 mg/kg, telmisartan 10 mg/kg, once daily for three weeks)	Glomerular sclerosis Global % [4, 5]	Glomerular sclerosis Global & Segmental % [4, 5]	Glomerular sclerosis Segmental % [4, 5]	urinary albumin/creatinine/day ratio ([4]; VB-703 4 mg/kg oral, at the termination of the study (8 weeks))	glomerular and interstitial monocyte/macrophage infiltration (CD68 positive cells) ([4]; VB-703 4 mg/kg, telmisartan 10 mg/kg, 8 weeks)	reduction of damaged glomeruli percent [4, 6]	reduction of sclerotic glomeruli [4, 6]
CCCCCCCCCCCCCCCCOCC(COP(=O)([O-])OCC[N+](C)(C)C)OCCCCC(=O)O (centres unmarked) [VB-201, 1-hexadecyl-2-(4′-carboxy)butyl-glycero-3-phosphocholine, reference compound]	inhibit	inhibit	–	–	–	–	–	–	–	–	–
CCCCCCCCCCC(CCCCCCCC)COC[C@H](COP(=O)([O-])OCC[n+]1ccccc1)OCCCCC(=O)O (stereo partly drawn) [VB-703, (R)-1-(2′-octyl)dodecyl-2-(4′-carboxy)butyl-sn-glycero-3-phosphoric acid pyridiniumethyl ester]	–	–	did not appear to significantly alter	58%	1.9 ± 1.55%	24.7 ± 3.77%	22.9 ± 2.83%	significantly improved	did not produce a significant effect	38%	49%
